The assay has as its target recombinant human LRRK2 (catalytic domain only [amino acids 970-2527], GST-tagged) (Homo sapiens (Human), UniProt Q5S007). Nature of the assay: LRRK2 Enzymatic Assay. Format: biochemical. The following applies: LRRKtide substrate, [32P]-ATP. The method, boiled down: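 Radiometric P81 filter-binding read-out of [32P]-ATP transfer to LRRKtide (20 μM) by 30 nM GST-LRRK2 970-2527, 2 h at room temperature after 20 min compound preincubation (10 μM–0.5 nM, 1% DMSO). IC50 derived from % remaining activity versus DMSO.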

pIC50: −log10 of the molar value. Where only a bound is given, the exact number is not on record here.

Chain of recombinant human LRRK2 (catalytic domain only [amino acids 970-2527], GST-tagged) (Q5S007 970-2527): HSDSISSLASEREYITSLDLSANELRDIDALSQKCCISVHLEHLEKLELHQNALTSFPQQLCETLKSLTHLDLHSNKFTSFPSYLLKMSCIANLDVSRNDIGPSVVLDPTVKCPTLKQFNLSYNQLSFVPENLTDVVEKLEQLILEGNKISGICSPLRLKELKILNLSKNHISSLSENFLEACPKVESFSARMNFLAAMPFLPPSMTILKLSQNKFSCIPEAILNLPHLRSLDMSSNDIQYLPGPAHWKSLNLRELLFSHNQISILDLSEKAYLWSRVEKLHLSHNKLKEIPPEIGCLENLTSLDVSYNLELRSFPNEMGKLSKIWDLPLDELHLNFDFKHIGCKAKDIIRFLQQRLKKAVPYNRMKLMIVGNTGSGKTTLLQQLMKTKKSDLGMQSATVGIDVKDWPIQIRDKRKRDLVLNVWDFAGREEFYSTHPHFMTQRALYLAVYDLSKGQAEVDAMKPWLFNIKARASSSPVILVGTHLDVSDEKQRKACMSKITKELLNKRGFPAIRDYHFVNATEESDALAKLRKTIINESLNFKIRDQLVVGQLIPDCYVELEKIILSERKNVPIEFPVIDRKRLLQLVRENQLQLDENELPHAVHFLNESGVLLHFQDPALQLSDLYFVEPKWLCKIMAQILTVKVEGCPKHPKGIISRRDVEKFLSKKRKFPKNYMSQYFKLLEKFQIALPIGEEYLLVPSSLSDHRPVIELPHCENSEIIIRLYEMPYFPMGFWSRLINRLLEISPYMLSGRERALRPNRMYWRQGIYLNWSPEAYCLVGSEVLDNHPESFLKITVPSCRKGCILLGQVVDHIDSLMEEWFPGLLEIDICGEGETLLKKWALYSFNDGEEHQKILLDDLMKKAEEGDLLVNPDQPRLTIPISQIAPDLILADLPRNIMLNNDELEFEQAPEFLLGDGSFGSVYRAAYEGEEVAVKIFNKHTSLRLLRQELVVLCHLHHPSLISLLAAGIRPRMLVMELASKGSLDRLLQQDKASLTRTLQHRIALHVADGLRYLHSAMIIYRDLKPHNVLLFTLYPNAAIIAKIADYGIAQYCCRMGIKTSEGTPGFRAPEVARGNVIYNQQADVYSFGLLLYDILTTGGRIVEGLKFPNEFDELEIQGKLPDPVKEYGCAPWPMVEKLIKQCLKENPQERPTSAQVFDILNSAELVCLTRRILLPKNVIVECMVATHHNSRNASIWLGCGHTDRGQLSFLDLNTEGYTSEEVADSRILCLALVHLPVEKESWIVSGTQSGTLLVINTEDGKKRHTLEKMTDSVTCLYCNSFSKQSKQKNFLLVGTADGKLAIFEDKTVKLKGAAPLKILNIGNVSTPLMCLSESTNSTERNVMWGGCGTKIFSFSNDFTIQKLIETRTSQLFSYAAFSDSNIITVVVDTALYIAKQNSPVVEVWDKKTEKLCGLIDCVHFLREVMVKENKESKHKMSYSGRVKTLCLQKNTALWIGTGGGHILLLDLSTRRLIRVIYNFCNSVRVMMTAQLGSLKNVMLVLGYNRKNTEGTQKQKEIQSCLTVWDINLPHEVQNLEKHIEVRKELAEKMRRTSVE

As for `CNC[C@H]1CC[C@H](COc2nc(Nc3cnn(C4CC(C#N)C4)c3C)ncc2Cl)CC1` (stereo partly drawn) [Example 50, 3-(4-((5-chloro-4-(((1R,4R)-4-((methylamino)methyl)cyclohexyl)methoxy)pyrimidin-2-yl)amino)-5-methyl-1H-pyrazol-1-yl)cyclobutane-1-carbonitrile], the pIC50 was above 7.30.

As for `OC1CCC(COc2nc(Nc3ccc(N4CCOCC4)cc3)ncc2F)CC1` (stereo not drawn) [Example 123, 4-(((5-fluoro-2-((4-morpholinophenyl)amino)pyrimidin-4-yl)oxy)methyl)cyclohexan-1-ol], the negative-log IC50 (pIC50) was 6.70 to 7.30. For `CN[C@H]1CC[C@H](COc2nc(Nc3ccc(N4CCOCC4)cc3)ncc2Cl)CC1` [Example 38, 5-chloro-4-(((1R,4R)-4-(methylamino)cyclo-hexyl)methoxy)-N-(4-morpholinophenyl) pyrimidin-2-amine], the pIC50 is above 7.30. In the case of `COCCn1cc(Nc2ncc(F)c(OC[C@H]3CC[C@H](NC(C)=O)CC3)n2)cn1` [Example 191, N-((1R,4R)-4-(((5-fluoro-2-((1-(2-methoxyethyl)-1H-pyrazol-4-yl)amino)pyrimidin-4-yl)oxy)methyl)cyclo-hexyl)acetamide], the negative logarithm of the IC50 (pIC50) is above 7.30.

With `Cc1nn(C2CC(C#N)C2)cc1Nc1ncc(Cl)c(OCC2CC(F)(F)C2)n1` (stereo not drawn) [Example 160, 3-(4-((5-chloro-4-((3,3-difluorocyclobutyl)methoxy)pyrimidin-2-yl)amino)-3-methyl-1H-pyrazol-1-yl)cyclobutane-1-carbonitrile], the negative-log IC50 (pIC50) was 6.70 to 7.30. In the case of `Cc1c(Nc2ncc(Cl)c(OCC3(F)CCNCC3)n2)cnn1C1CC(C#N)C1` (stereo not drawn) [Example 22, 3-(4-((5-chloro-4-((4-fluoropiperidin-4-yl)methoxy)pyrimidin-2-yl)amino)-5-methyl-1H-pyrazol-1-yl)cyclobutane-1-carbonitrile] it was above 7.30. For the compound `O=C(N[C@H]1CC[C@H](COc2nc(Nc3ccc(N4C5CCC4COC5)cc3)ncc2F)CC1)C(F)(F)F` [Example 209, N-((1R,4R)-4-(((2-((4-(3-oxa-8-aza-bicyclo[3.2.1]octan-8-yl)phenyl)amino)-5-fluoro-pyrimidin-4-yl)oxy)methyl)cyclohexyl)-2,2,2-trifluoro-acetamide], the pIC50 was above 7.30.

`N[C@H]1CC[C@H](COc2nc(Nc3ccc(N4CCOCC4)cc3)ncc2F)CC1` [Example 10, 4-(((1R,4R)-4-aminocyclohexyl)methoxy)-5-fluoro-N-(4-morpholinophenyl) pyrimidin-2-amine]: the negative logarithm of the IC50 (pIC50) was above 7.30. Consider `Cc1nn(C)cc1Nc1ncc(F)c(OC[C@H]2CC[C@H](O)CC2)n1` [Example 229, (1R,4R)-4-(((2-((1,3-dimethyl-1H-pyrazol-4-yl)amino)-5-fluoropyrimidin-4-yl)oxy)methyl)cyclohexan-1-ol], for which the pIC50 was 6.70 to 7.30. In the case of `COc1cc(C(=O)N2CCOCC2)c(F)cc1Nc1ncc(F)c(OC[C@H]2CC[C@H](O)CC2)n1` [Example 214, (2-fluoro-4-((5-fluoro-4-(((1R,4R)-4 hydroxycyclohexyl)methoxy)pyrimidin-2-yl)amino)-5-methoxyphenyl)(morpholino)methanone] it was 6.70 to 7.30; in that of `Cc1nn(C(C)(C)C#N)cc1Nc1nccc(OCC2CCC(O)CC2)n1` (stereo not drawn) [Example 119, 2-(4-((4-((4-hydroxycyclohexyl)methoxy)pyrimidin-2-yl)amino)-3-methyl-1H-pyrazol-1-yl)-2-methylpropanenitrile], 6.40 to 6.70; in that of `COCCn1cc(Nc2ncc(F)c(OC[C@H]3CC[C@H](O)CC3)n2)cn1` [Example 226, (1R,4R)-4-(((5-fluoro-2-((1-(2-methoxyethyl)-1H-pyrazol-4-yl)amino)pyrimidin-4-yl)oxy)methyl)cyclohexan-1-ol], 6.70 to 7.30. Consider `c1cc(OCC2CCNCC2)nc(Nc2ccc(N3CCOCC3)cc2)n1` [Example 17, N-(4-morpholinophenyl)-4-(piperidin-4-ylmethoxy)pyrimidin-2-amine], for which the negative logarithm of the IC50 (pIC50) is 6.40 to 6.70. As for `Clc1cnc(Nc2ccc(N3CCOCC3)cc2)nc1OCC1CCOCC1` [Example 148, 5-chloro-N-(4-morpholinophenyl)-4-((tetrahydro-2H-pyran-4-yl)methoxy)pyrimidin-2-amine], the pIC50 was above 7.30. In the case of `Cc1cnc(Nc2ccc(N3C[C@@H](C)O[C@@H](C)C3)cc2)nc1OCC1CCC(O)CC1` (stereo partly drawn) [Example 128, 4-(((2-((4-((2S,6R)-2,6-dimethylmorpholino)phenyl)amino)-5-methylpyrimidin-4-yl)oxy)methyl)cyclohexan-1-ol] it was above 7.30. `Cc1nn(C(C)(C)C#N)cc1Nc1ncc(Cl)c(OCC2CCC(NC3CC(F)(F)C3)CC2)n1` (stereo not drawn) [Example 145, 2-(4-((5-chloro-4-((4-((3,3-difluorocyclobutyl)amino)cyclohexyl)methoxy)pyrimidin-2-yl)amino)-3-methyl-1H-pyrazol-1-yl)-2-methylpropanenitrile]: the pIC50 is above 7.30.

Consider `Cc1nn(C(C)(C)C#N)cc1Nc1ncc(F)c(OC[C@H]2CC[C@@H](O)[C@H](F)C2)n1` [Example 259], for which the pIC50 is above 7.30. In the case of `CN[C@H]1CC[C@H](COc2ccnc(Nc3ccc(N4CCOCC4)cc3)n2)CC1` [Example 31, 4-(((1R,4R)-4-(methylamino)cyclo-hexyl)methoxy)-N-(4-morpholinophenyl) pyrimidin-2-amine], the negative-log IC50 (pIC50) was above 7.30. `N#CC1CCC(COc2nc(Nc3ccc(N4CCOCC4)cc3)ncc2F)CC1` (racemic) [Example 272, 4-(((5-fluoro-2-((4-morpholinophenyl)amino)pyrimidin-4-yl)oxy)methyl)cyclohexane-1-carbonitrile]: the pIC50 is above 7.30. On to `C[C@@H]1CN(c2ccc(Nc3nc(Cl)c(F)c(OC[C@H]4CC[C@H](O)CC4)n3)cc2)C[C@H](C)O1` [Example 247, (1R,4R)-4-(((6-chloro-2-((4-((2S,6R)-2,6-dimethylmorpholino)phenyl)amino)-5-fluoropyrimidin-4-yl)oxy)methyl)cyclohexan-1-ol], for which the negative-log IC50 (pIC50) was below 6.40. Take `NC[C@H]1CC[C@H](COc2ccnc(Nc3ccc(N4CCOCC4)cc3)n2)CC1` [Example 12, 4-(((1R,4R)-4-(aminomethyl)cyclohexyl)methoxy)-N-(4-morpholinophenyl) pyrimidin-2-amine]: the pIC50 is above 7.30. In the case of `CC(C)n1cc(Nc2ncc(F)c(OC[C@H]3CC[C@@H](O)CC3)n2)cn1` [Example 219, (1S,4S)-4-(((5-fluoro-2-((1-isopropyl-1H-pyrazol-4-yl)amino)pyrimidin-4-yl)oxy)methyl)cyclohexan-1-ol] it was below 6.40. In the case of `CC(N[C@H]1CC[C@H](COc2nc(Nc3ccc(N4CCOCC4)cc3)ncc2F)CC1)C(F)(F)F` (stereo partly drawn) [Example 116, 5-fluoro-N-(4-morpholino-phenyl)-4-(((1R,4R)-4-((1,1,1-trifluoro-propan-2-yl)amino)cyclohexyl)methoxy) pyrimidin-2-amine] it was 6.40 to 6.70. On to `FC(F)(F)CN[C@H]1CC[C@H](COc2nc(Nc3ccc(N4CCOCC4)cc3)ncc2Cl)CC1` [Example 108, 5-chloro-N-(4-morpholino-phenyl)-4-(((1R,4R)-4-((2,2,2-trifluoroethyl)amino)cyclohexyl)methoxy) pyrimidin-2-amine], for which the pIC50 was above 7.30. Turning to `Fc1cnc(Nc2ccc(N3CCOCC3)cc2)nc1OCC1CCC(OC(F)(F)F)CC1` (single isomer, unassigned) [Example 281, 5-fluoro-N-(4-morpholinophenyl)-4-((4-(trifluoromethoxy)cyclohexyl)methoxy)pyrimidin-2-amine], the pIC50 was below 6.40.

As to `CNC[C@H]1CC[C@H](COc2ccnc(Nc3ccc(N4CCOCC4)cc3)n2)CC1` [Example 48, 4-(((1R,4R)-4-((methylamino)methyl)cyclohexyl)methoxy)-N-(4-morpholinophenyl)py-rimidin-2-amine], the negative-log IC50 (pIC50) is 6.70 to 7.30. With `CC(C)(C#N)n1cc(Nc2ncc(F)c(OC[C@H]3CC[C@H](O)CC3)n2)cn1` [Example 221], the pIC50 was 6.70 to 7.30. Turning to `Cn1ccc(Nc2nccc(OC[C@H]3CC[C@H](N)CC3)n2)n1` [Example 4, 4-(((1R,4R)-4-aminocyclohexyl)methoxy)-N-(1-methyl-1H-pyrazol-3-yl)pyrimidin-2-amine], the negative-log IC50 (pIC50) was 6.70 to 7.30. As to `Fc1cnc(Nc2ccc(N3CCOCC3)cc2)nc1OCC1(F)CCNCC1` [Example 24, 5-fluoro-4-((4-fluoropiperidin-4-yl)methoxy)-N-(4-morpholinophenyl) pyrimidin-2-amine], the negative logarithm of the IC50 (pIC50) was 6.70 to 7.30. For the compound `CC(=O)N[C@H]1CC[C@H](COc2nc(Nc3cnn(CC(F)(F)F)c3)ncc2F)CC1` [Example 188, N-((1R,4R)-4-(((5-fluoro-2-((1-(2,2,2-trifluoroethyl)-1H-pyrazol-4-yl)amino)pyrimidin-4-yl)oxy)methyl)cyclo-hexyl)acetamide], the pIC50 is above 7.30.

For `CN[C@H]1CC[C@H](COc2ccnc(Nc3cn(C(C)(C)C#N)nc3C)n2)CC1` [Example 32, 2-methyl-2-(3-methyl-4-((4-(((1R,4R)-4-(methylamino)cyclo-hexyl)methoxy)pyrimidin-2-yl)amino)-1H-pyrazol-1-yl)propanenitrile], the pIC50 is above 7.30. As for `O[C@H]1CC[C@H](COc2nc(Nc3cnn(C4CCOCC4)c3Cl)ncc2F)CC1` [Example 242, (1R,4R)-4-(((2-((5-chloro-1-(tetrahydro-2H-pyran-4-yl)-1H-pyrazol-4-yl)amino)-5-fluoropyrimidin-4-yl)oxy)methyl)cyclohexan-1-ol], the pIC50 was above 7.30. As to `CC(=O)N[C@H]1CC[C@H](COc2nc(Nc3cnn(C(C)C)c3)ncc2F)CC1` [Example 185, N-((1R,4R)-4-(((5-fluoro-2-((1-isopropyl-1H-pyrazol-4-yl)amino)pyrimidin-4-yl)oxy)methyl)cyclo-hexyl)acetamide], the pIC50 was above 7.30.

The values above are taken from patent publication US11578061B2, “Inhibitors of LRRK2 kinase” (Halia Therapeutics, Inc., priority 2021, dated 2023).
